Measured values from patent publication EP2680005A1, “Lipid analysis” (Rheinische Friedrich-Wilhelms-Universität Bonn, priority 2012, dated 2014).
Like-named read-outs stand apart in the source and are kept apart here.

What was measured:
[1] = system: Freshly isolated mouse hepatocytes; assay: Comparison of 3H-oleate and alkyne-oleate labeling (click/TLC fluorescence vs scintillation counting); assay type: cell-based
Procedure: (§1) Alkyne lipid precursors are supplemented to cell culture where they become incorporated into cellular lipids, e.g. into phosphatidylcholine (PC). These are extracted and reacted with the fluorogenic dye 3-azido-7-hydroxycoumarin in the presence of copper(I). […] (a) Alkyne-Bodipy at concentrations as indicated was reacted with either 60 µM 3-azido-7-hydroxycoumarin and 2mM Cu(I)BF4 (+) or incubated in ethanol for 3h at 42°C (-). The samples were separated by TLC using hexane/ethyl acetate 1/1 as the mobile phase. […] (c) Plot of the integrated fluorescence intensity of lane 6 of panel b (left) and from the corresponding one second exposure before base treatment. […] The cholesterol ester of alkyne-oleate at the indicated concentrations was subjected to detection reaction, TLC separation and fluorescence imaging using the standard protocol. […] (b) Quantification of integrated fluorescence of panel a. […] Signals were quantified either by scraping, extraction and scintillation counting (panel b, ^3H-oleate) or by integration of signals form the fluorescence image (panel b, alkyne-oleate). […] Lipids extracts were dried and subjected to detection reaction, TLC separation and fluorescence imaging using the standard protocol. […] (b) Quantification of the signals in panel a. […]

[2] = system: Drosophila melanogaster L3 larvae; assay: Alkyne fatty acid labeling of opened single L3 larvae; conditions: 50 µM, 30 min
Procedure: as §1

HuH7 hepatoma cells = assay: Pulse chase labeling with alkyne fatty acids; assay type: cell-based
Procedure: Alkyne lipid precursors are supplemented to cell culture where they become incorporated into cellular lipids, e.g. into phosphatidylcholine (PC). These are extracted and reacted with the fluorogenic dye 3-azido-7-hydroxycoumarin in the presence of copper(I). […] (a) Alkyne-Bodipy at concentrations as indicated was reacted with either 60 µM 3-azido-7-hydroxycoumarin and 2mM Cu(I)BF4 (+) or incubated in ethanol for 3h at 42°C (-). The samples were separated by TLC using hexane/ethyl acetate 1/1 as the mobile phase. The dried TLC plate was first imaged with excitation at 485 nm and emission at >520 nm (left panel, Bodipy channel), followed by treatment with 4% Hünig's base in hexane and imaging with excitation at 420 nm and emission at 484-504 nm (right panel, Coumarin channel). (b, c) Influence of dye concentration and base treatment. A172 cells were grown in a 15 cm dish and labeled with 100 µM alkyne-palmitate/alkyne-oleate 1/1 for 2 h. Lipids were extracted and dissolved in 2 ml CHCl3. 2 µl of this extract were reacted with 2 mM Cu(I)BF4 and the indicated concentration of 3-azido-7-hydroxycoumarin in 37 µl ethanol/MeCN/CHCl3 24/6/7 at 42°C for 3 h. Samples were separated by TLC and imaged (b) before (right panel) and after (left panel) treatment with 4%-Hünig's base in hexane for the times indicated. (c) Plot of the integrated fluorescence intensity of lane 6 of panel b (left) and from the corresponding one second exposure before base treatment. […] The cholesterol ester of alkyne-oleate at the indicated concentrations was subjected to detection reaction, TLC separation and fluorescence imaging using the standard protocol. […] (b) Quantification of integrated fluorescence of panel a. […] Signals were quantified either by scraping, extraction and scintillation counting (panel b, ^3H-oleate) or by integration of signals form the fluorescence image (panel b, alkyne-oleate). […] Lipids extracts were dried and subjected to detection reaction, TLC separation and fluorescence imaging using the standard protocol. […] (b) Quantification of the signals in panel a. […]

[3] = system: Freshly isolated mouse hepatocytes; assay: Hepatocyte fatty acid metabolism, time course with alkyne or natural fatty acids; assay type: cell-based; conditions: 50 µM fatty acid, all labeling times; fluorescent click analysis
Procedure: as §1

A-172 cells = assay: Alkyne-sphinganine labeling of cultivated cells, click analysis; assay type: cell-based; conditions: cultivated 1 h with the compound
Procedure: as §1

amount of label in neutral lipids [1] | incorporation into PE [2] | incorporation into TAG compared to PC [3] | SMILES | fate of label after chase (HuH7 hepatoma cells) | fate of label after chase (HuH7 hepatoma cells; 3 min pulse, 30 min chase) | distribution of label after pulse (HuH7 hepatoma cells; 3 min pulse, no chase) | labeling of cellular lipids (A-172 cells)
49% | large amounts | – | C#CCCCCCCC/C=C\CCCCCCCC(=O)O [alkyne-oleate, Nonadec-9-cis-en-18-ynoic acid] | metabolized to the final products PC, PE, TAG and CE | – | – | –
– | much less | equal distribution between PC and TAG | C#CCCCCCCCCCCCCCCC(=O)O [alkyne-palmitate, 16-Heptadecynoic acid] | – | metabolized to the final products PC, PE, TAG and CE | much of the fatty acids were found as the free substance, or in biosynthetic intermediates such as PA and DAG | –
– | – | – | C#CCCCCCCCCCCCCC[C@@H](O)[C@@H](N)CO [alkyne-sphinganine, (2S,3R)-2-Aminooctadec-17-yn-1,3-diol] | – | – | – | strong labeling of ceramide and other sphingolipids
